Data published in ChEMBL document CHEMBL5528048, “Discovery of Novel Potent and Fast BTK PROTACs for the Treatment of Osteoclasts-Related Inflammatory Diseases” (J Med Chem, 2024).
The source made the active and inactive calls. No cut-off for these calls is given here.

Assays:
[1] = target: T1, Protein cereblon/Tyrosine-protein kinase BTK (Homo sapiens, UniProt Q06187+Q96SW2); assay: PROTAC activity at BTK/CRBN in human MINO cells assessed as BTK protein degradation at 100 nM measured after 24 hrs by Western blotting analysis relative to control; assay type: cell-based
Target sequence in this assay (Q06187 2-659 limits assumed): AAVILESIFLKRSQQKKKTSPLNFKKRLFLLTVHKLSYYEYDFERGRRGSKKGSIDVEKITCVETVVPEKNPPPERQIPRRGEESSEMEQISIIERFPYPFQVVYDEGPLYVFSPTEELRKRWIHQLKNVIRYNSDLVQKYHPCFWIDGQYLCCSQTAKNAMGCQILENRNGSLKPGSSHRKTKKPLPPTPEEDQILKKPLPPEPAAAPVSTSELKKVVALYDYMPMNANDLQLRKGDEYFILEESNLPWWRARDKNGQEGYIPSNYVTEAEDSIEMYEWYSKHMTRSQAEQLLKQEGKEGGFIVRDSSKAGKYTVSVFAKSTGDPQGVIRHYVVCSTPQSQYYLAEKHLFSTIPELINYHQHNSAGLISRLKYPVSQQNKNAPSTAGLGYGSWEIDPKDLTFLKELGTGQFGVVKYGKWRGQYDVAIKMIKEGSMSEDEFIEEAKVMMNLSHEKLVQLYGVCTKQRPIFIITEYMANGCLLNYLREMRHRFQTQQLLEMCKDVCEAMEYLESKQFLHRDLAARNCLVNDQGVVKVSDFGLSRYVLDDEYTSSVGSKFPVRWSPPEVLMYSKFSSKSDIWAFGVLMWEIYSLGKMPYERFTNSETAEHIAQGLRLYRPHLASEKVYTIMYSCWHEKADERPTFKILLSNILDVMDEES
Target sequence in this assay (Q96SW2 whole entry partner): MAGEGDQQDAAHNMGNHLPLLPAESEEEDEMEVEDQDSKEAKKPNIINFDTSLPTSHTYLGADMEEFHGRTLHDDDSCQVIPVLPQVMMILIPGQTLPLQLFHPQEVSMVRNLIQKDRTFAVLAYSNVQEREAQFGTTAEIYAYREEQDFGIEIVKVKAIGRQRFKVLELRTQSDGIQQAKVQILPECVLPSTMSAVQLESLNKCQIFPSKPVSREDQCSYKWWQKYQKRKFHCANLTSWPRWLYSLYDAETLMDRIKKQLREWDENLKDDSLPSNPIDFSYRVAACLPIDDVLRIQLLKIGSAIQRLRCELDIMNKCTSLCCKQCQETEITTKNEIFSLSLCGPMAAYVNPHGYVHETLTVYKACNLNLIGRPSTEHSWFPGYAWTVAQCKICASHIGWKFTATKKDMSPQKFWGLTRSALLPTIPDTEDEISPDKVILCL

[2] = target: T1, Protein cereblon/Tyrosine-protein kinase BTK; assay: PROTAC activity at BTK/CRBN in human MINO cells assessed as BTK protein degradation at 20 nM measured after 24 hrs by Western blotting analysis relative to control; assay type: cell-based
Target sequence in this assay (Q06187 2-659 limits assumed): as the sequence (Q06187 2-659 limits assumed) above
Target sequence in this assay (Q96SW2 whole entry partner): as the sequence (Q96SW2 whole entry partner) above

[3] = target: T1, Protein cereblon/Tyrosine-protein kinase BTK; assay: PROTAC activity at BTK/CRBN in human MINO cells assessed as BTK protein degradation by measuring onset time activity at 20 nM by Western blotting analysis; assay type: cell-based
Target sequence in this assay (Q06187 2-659 limits assumed): as the sequence (Q06187 2-659 limits assumed) above
Target sequence in this assay (Q96SW2 whole entry partner): as the sequence (Q96SW2 whole entry partner) above

[4] = target: T1, Protein cereblon/Tyrosine-protein kinase BTK; assay: PROTAC activity at BTK/CRBN in human MINO cells assessed as BTK protein degradation half life at 20 nM by Western blotting analysis; assay type: cell-based
Target sequence in this assay (Q06187 2-659 limits assumed): as the sequence (Q06187 2-659 limits assumed) above
Target sequence in this assay (Q96SW2 whole entry partner): as the sequence (Q96SW2 whole entry partner) above

[5] = target: T1, Protein cereblon/Tyrosine-protein kinase BTK; assay: PROTAC activity at BTK/CRBN in human MINO cells assessed as BTK protein degradation measured for 4 hrs by Western blotting analysis; assay type: cell-based
Target sequence in this assay (Q06187 whole entry): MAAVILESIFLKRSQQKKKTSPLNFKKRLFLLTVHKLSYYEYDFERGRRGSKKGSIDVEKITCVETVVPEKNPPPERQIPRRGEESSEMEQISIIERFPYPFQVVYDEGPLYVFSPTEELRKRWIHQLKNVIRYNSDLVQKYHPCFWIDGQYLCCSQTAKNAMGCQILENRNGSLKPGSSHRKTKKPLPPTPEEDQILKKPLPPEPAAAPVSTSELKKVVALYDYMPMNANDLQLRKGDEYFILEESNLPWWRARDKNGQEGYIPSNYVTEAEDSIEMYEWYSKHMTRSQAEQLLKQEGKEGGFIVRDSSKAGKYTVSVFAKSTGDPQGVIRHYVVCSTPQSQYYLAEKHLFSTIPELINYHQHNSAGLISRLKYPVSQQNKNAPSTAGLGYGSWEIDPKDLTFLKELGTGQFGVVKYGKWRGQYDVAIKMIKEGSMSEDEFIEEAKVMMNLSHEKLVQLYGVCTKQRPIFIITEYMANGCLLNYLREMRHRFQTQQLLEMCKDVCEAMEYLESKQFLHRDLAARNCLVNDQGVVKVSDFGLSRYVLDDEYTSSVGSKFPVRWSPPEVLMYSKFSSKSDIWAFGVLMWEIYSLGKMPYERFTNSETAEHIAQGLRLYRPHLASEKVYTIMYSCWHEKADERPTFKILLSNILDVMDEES
Target sequence in this assay (Q96SW2 whole entry): as the sequence (Q96SW2 whole entry partner) above

[6] = target: Tyrosine-protein kinase BTK (Homo sapiens, UniProt Q06187); assay: Inhibition of BTK (unknown origin) measured after 60 mins incubation by microtiter-plate reader
Protein cereblon = Protein cereblon (Homo sapiens, UniProt Q96SW2); assay: Inhibition of CRBN (unknown origin) measured after 60 mins incubation by BMG reader
[7] = target: T1, Protein cereblon/Tyrosine-protein kinase BTK; assay: Binding affinity to BTK/CRBN (unknown origin) assessed as ternary complex formation measured after 60 mins incubation by HTRF assay
Target sequence in this assay (Q06187 whole entry): as the sequence (Q06187 whole entry) above
Target sequence in this assay (Q96SW2 whole entry): as the sequence (Q96SW2 whole entry partner) above

[8] = target: T1, Protein cereblon/Tyrosine-protein kinase BTK; assay: Binding affinity to BTK/CRBN (unknown origin) assessed as ternary complex formation by measuring peak HTRF ratio at wavelength 665/620 nm measured after 60 mins incubation by HTRF assay
Target sequence in this assay (Q06187 2-659 limits assumed): as the sequence (Q06187 2-659 limits assumed) above
Target sequence in this assay (Q96SW2 whole entry partner): as the sequence (Q96SW2 whole entry partner) above

[9] = target: T1, Protein cereblon/Tyrosine-protein kinase BTK; assay: PROTAC activity at BTK/CRBN in human MINO cells assessed as BTK protein degradation pretreated with 2 uM ibrutinib followed by 1 hr treated at 20 nM measured after 48 hrs by Western blotting analysis; assay type: cell-based; settings: dose […]
Target sequence in this assay (Q06187 2-659 limits assumed): as the sequence (Q06187 2-659 limits assumed) above
Target sequence in this assay (Q96SW2 whole entry partner): as the sequence (Q96SW2 whole entry partner) above

[10] = target: T1, Protein cereblon/Tyrosine-protein kinase BTK; assay: PROTAC activity at BTK/CRBN in human MINO cells assessed as BTK protein degradation pretreated with 2 uM pomalidomide followed by 1 hr treated at 20 nM measured after 48 hrs by Western blotting analysis; assay type: cell-based; settings: dose […]
[11] = target: T1, Protein cereblon/Tyrosine-protein kinase BTK; assay: PROTAC activity at BTK/CRBN in human MINO cells assessed as BTK protein degradation pretreated with 2 uM MG132 followed by 1 hr treated at 20 nM measured after 48 hrs by Western blotting analysis; assay type: cell-based; settings: dose […]
[12] = target: T1, Protein cereblon/Tyrosine-protein kinase BTK; assay: PROTAC activity at BTK/CRBN in human MINO cells assessed as BTK protein degradation pretreated with 2 uM bafilomycin followed by 1 hr treated at 20 nM measured after 48 hrs by Western blotting analysis; assay type: cell-based; settings: dose […]
[13] = target: T2, Protein cereblon/Tyrosine-protein kinase BTK (Mus musculus) (UniProt P35991+Q8C7D2); assay: PROTAC activity at BTK/CRBN in mCSF/RANKL-stimulated C57BL/6J mouse BMDM assessed as BTK protein degradation at 25 to 100 nM followed by stimulated with mCSF/RANKL measured after 2 hrs by Western blotting analysis; assay type: cell-based; settings: dose 25-100 nM
[14] = target: T2, Protein cereblon/Tyrosine-protein kinase BTK (Mus musculus); assay: PROTAC activity at BTK/CRBN in mCSF/RANKL-stimulated C57BL/6J mouse BMDM assessed as reduction in phosphorylated BTK protein level at 25 to 100 nM followed by stimulated with mCSF/RANKL measured after 2 hrs by Western blotting analysis; assay type: cell-based; settings: dose 25-100 nM
[15] = target: T2, Protein cereblon/Tyrosine-protein kinase BTK (Mus musculus); assay: PROTAC activity at BTK/CRBN in mCSF/RANKL-stimulated C57BL/6J mouse BMDM assessed as reduction in phosphorylated NFkappa-p65 protein level at 25 to 100 nM followed by stimulated with mCSF/RANKL measured after 2 hrs by Western blotting analysis; assay type: cell-based; settings: dose 25-100 nM
[16] = target: T2, Protein cereblon/Tyrosine-protein kinase BTK (Mus musculus); assay: PROTAC activity at BTK/CRBN in C57BL/6J mouse BMDM assessed as reduction in mCSF/RANKL-stimulated intracellular calcium influx by measuring fluorescence intensity measured after 2 hrs by Fluo-4/AM-fluorescent assay; assay type: cell-based; settings: dose 25-100 nM
BMMC [17] = assay: Inhibition of RANKKL-induced upregulation of osteoclast related genes in C57BL/6J mouse BMM cells assessed as reduction in mCSF/RANKL-stimulated TRAP gene expression at 25 to 100 nM followed by stimulated with mCSF/RANKL measured after 2 hrs by qPCR analysis; assay type: functional, cell-based; settings: dose 25-100 nM
BMMC [18] = assay: Inhibition of RANKKL-induced upregulation of osteoclast related genes in C57BL/6J mouse BMM cells assessed as reduction in mCSF/RANKL-stimulated Dcstamp-gene expression at 25 to 100 nM followed by stimulated with mCSF/RANKL measured after 2 hrs by qPCR analysis; assay type: functional, cell-based; settings: dose 25-100 nM
BMMC [19] = assay: Inhibition of RANKKL-induced upregulation of osteoclast related genes in C57BL/6J mouse BMM cells assessed as reduction in mCSF/RANKL-stimulated CTSK gene expression at 25 to 100 nM followed by stimulated with mCSF/RANKL measured after 2 hrs by qPCR analysis; assay type: functional, cell-based; settings: dose 25-100 nM
[20] = target: T2, Protein cereblon/Tyrosine-protein kinase BTK (Mus musculus); assay: PROTAC activity at BTK/CRBN in C57BL/6J mouse BMM cells assessed as reduction in mCSF/RANKL-stimulated NFATc1 protein expression at 25 to 100 nM followed by stimulated with mCSF/RANKL measured after 2 hrs by Western blot analysis; assay type: cell-based; settings: BMDM, dose 25-100 nM
[21] = target: T2, Protein cereblon/Tyrosine-protein kinase BTK (Mus musculus); assay: PROTAC activity at BTK/CRBN in C57BL/6J mouse BMM cells assessed as reduction in mCSF/RANKL-stimulated c-Fos protein expression at 25 to 100 nM followed by stimulated with mCSF/RANKL measured after 2 hrs by Western blot analysis; assay type: cell-based; settings: BMDM, dose 25-100 nM
Mus musculus [22] = assay: Antiosteoclastogenic effects in LPS-soaked ligature-induced C57BL/6J mouse periodontal disease model assessed as reduction in periodontal alveolar bone loss at 10 mg/kg, ip treated on day 0, 1,4, 7 and measured on day 10 by Micro-CT 3D scan; assay type: functional, organism-based; settings: time 7.0 day
Mus musculus [23] = assay: Antiosteoclastogenic effects in LPS-soaked ligature-induced C57BL/6J mouse periodontal disease model assessed as reduction in periodontal alveolar bone loss by measuring distance between the cemento-enamel junction (CEJ) at 10 to 30 mg/kg, ip treated on day 0, 1,4, 7 and measured on day 10 by Micro-CT 3D scan; assay type: functional, organism-based; settings: dose 10-30 mg/kg, time 7.0 day
Mus musculus [24] = assay: Antiosteoclastogenic effects in LPS-soaked ligature-induced C57BL/6J mouse periodontal disease model assessed as reduction in periodontal alveolar bone loss by measuring increase in bone volume per tissue volume (BV/TV%) at 10 to 30 mg/kg, ip treated on day 0, 1,4, 7 and measured on day 10 by Micro-CT 3D scan; assay type: functional, organism-based; settings: dose 10-30 mg/kg, time 7.0 day
[25] = Apparent volume of distribution in Sprague-Dawley rat at 4 mg/kg, ip measured upto 48 hrs; assay type: ADME, organism-based; settings: in vivo
[26] = Clearance in Sprague-Dawley rat at 4 mg/kg, ip measured upto 48 hrs; settings: in vivo
[27] = Cmax in Sprague-Dawley rat at 4 mg/kg, ip measured upto 48 hrs; assay type: ADME, organism-based; settings: in vivo
[28] = Bioavailability in Sprague-Dawley rat at 4 mg/kg, ip measured upto 48 hrs; assay type: ADME, organism-based; settings: in vivo
[29] = Half life in Sprague-Dawley rat at 2 mg/kg, iv measured upto 48 hrs; assay type: ADME, organism-based; settings: in vivo

T2 sequence (P35991 whole entry, looked up): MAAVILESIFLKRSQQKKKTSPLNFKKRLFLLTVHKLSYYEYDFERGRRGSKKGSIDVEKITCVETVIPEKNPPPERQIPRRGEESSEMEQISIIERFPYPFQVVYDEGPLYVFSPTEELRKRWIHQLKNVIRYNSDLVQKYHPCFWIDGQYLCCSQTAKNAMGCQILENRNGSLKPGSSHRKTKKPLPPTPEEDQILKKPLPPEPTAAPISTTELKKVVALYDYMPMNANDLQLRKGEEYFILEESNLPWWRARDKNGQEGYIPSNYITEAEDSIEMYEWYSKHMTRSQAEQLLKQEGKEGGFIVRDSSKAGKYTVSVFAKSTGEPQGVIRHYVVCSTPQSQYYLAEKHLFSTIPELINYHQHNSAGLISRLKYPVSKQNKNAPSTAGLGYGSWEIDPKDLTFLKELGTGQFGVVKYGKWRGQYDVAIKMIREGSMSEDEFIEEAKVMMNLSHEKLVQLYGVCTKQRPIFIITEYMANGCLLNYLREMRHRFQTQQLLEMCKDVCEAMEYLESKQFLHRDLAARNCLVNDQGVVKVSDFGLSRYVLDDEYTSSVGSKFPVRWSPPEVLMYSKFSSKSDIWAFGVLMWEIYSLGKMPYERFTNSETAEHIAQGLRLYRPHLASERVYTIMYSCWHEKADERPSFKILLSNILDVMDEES
T2 sequence (Q8C7D2 whole entry, looked up): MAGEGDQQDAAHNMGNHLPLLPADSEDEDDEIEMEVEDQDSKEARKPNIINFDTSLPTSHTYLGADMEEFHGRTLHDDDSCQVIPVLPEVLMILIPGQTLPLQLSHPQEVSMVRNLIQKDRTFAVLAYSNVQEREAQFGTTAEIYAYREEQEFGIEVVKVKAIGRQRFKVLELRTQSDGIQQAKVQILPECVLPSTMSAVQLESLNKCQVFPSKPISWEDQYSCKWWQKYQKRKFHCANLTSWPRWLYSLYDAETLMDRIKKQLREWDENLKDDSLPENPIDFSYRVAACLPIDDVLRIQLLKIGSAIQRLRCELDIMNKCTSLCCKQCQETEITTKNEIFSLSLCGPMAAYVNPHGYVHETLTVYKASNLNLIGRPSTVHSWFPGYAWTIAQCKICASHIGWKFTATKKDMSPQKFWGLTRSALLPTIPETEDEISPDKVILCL
Tyrosine-protein kinase BTK, sequence (Q06187 whole entry): as the sequence (Q06187 whole entry) above
Protein cereblon, sequence (Q96SW2 whole entry): as the sequence (Q96SW2 whole entry partner) above

Q: Which results are given for `Cc1cc(-c2nc(Nc3cnn(C4CCN(CC5CCN(c6ccc7c(c6)C(=O)N(C6CCC(=O)NC6=O)C7=O)CC5)CC4)c3)ncc2F)ccc1CNC(=O)c1cn(C(C)(C)C)nn1` (stereo not given)?
A: Activity [1]: 99%; Activity [2]: 99%; TIME [3]: < 0.5 h; T1/2 [4]: 0.59 h; DC50 [5]: 1.29 nM; IC50 [6]: 299 nM; IC50 (Protein cereblon): 248 nM; EC50 [7]: 4.28 nM; Ratio [8]: 8.59; Activity [9]: inactive; Activity [10]: inactive; Activity [11]: inactive; Activity [12]: inactive; Activity [13]: inactive; Activity [14]: Active; Activity [15]: Active; Activity [16]: Dose-Dependent Effect; inhibition (BMMC [17]): Active; inhibition (BMMC [18]): Active; inhibition (BMMC [19]): Active; Activity [20]: Active; Activity [21]: Active; Activity (Mus musculus [22]): Active; Activity (Mus musculus [23]): Active; Activity (Mus musculus [24]): Active; Vz [25]: 30.04 L/kg; CL/F at 48 h [26]: 25.8 mL/min/kg; Cmax [27]: 184 ng/mL; bioavailability [28]: 65.7%; half-life [29]: 7.03 h
